In patent US10111877B2, “Modulators of androgen synthesis” (Tangent Reprofiling Limited, priority 2012, dated 2018):

How the values were obtained:
OVCAR-3 cells = assay: Cell growth inhibition, lysed cell LDH assay, ovarian cancer cell line; assay type: cell-based; conditions: 50 μM Risperidone and/or 50 μM CLA, 1 μM Testosterone (T) where added, 96 hours
Method: (§1) To determine whether Risperidone could be effective in inhibiting growth of cancer cells overexpressing HSD10, a lysed cell LDH assay was conducted using cells taken from a prostate cancer cell line, a lung cancer cell line, a breast cancer cell line, an ovarian cancer cell line, each of which was known to overexpress HSD10, and a non-cancerous cell line.
(§2) After incubation in the drug treatment for 96 hours at 37° C., 5% CO2, the supernatant was removed from all wells of cells, and cells washed with 200 μL PBS.
(§3) After removal of the PBS from the cell cultures described above, cell number was determined using a lysed cell LDH assay. Cells were lysed with 0.9% Triton-X in PBS for 2 hours at 37° C., 5% CO2 and 50 μL of this cell lysate was transferred to a fresh 96 well plate. About 50 μL of CytoTox 96 assay reagent was added to the transferred cell lysate and this mixture was incubated at room temperature in the dark for 20 minutes. After the addition of 50 μL stop reagent, the optical absorbance was determined for each incubated mixture at 492 nm. […] The mean and standard error was calculated from at least 3 wells.

BxPC-3 cells = assay: Resazurin-based cell viability assay, pancreatic cancer cell line; conditions: 72 hours, combination equimolar, 100% = no drug, 0% = Paclitaxel
Method: To determine whether Risperidone alone, or in combination with CLA could inhibit cell growth of cells taken from a pancreatic cancer cell line overexpressing HSD10, a resazurin-based cell viability assay was conducted on Bx-PC3 cells.
BxPC-3 cells are from a cell line derived from a human pancreatic adenocarcinoma and are known to overexpress HSD10. BxPC-3 cells were seeded at a density of 4,000 cells per well in a 384 well plate, and incubated at 37° C., 5% CO2 for 24 hours in standard growth media (RPMI nutrient media, 5% heat-inactivated Fetal Calf Serum, 2 mM L-Glutamine). The media was then removed by pipette and replaced with 50 μL BxPC-3 treatment media comprising 125 μM fatty acid-free BSA, 2 mM L-Glutamine and one of the following drug treatments: 0.1 μM, 2 μM, or 50 μM Risperidone; 0.1 μM, 2 μM, or 50 μM CLA; or 0.1 μM, 2 μM, or 50 μM of Risperidone and CLA (in equimolar amounts). After incubation in the drug treatment for 72 hours at 37° C., 5% CO2, viable cell number was determined using a resazurin-based cell viability assay (PRESTOBLUE®; Invitrogen, Carlsbad, Calif.). To each well, 7 μL of PRESTOBLUE® reagent was added and the plates incubated for 60 minutes at 37° C., 5% CO2. After incubation, the fluorescence intensity of each well was determined using a microplate reader by excitation and 570 nm and recording emission at 600 nm. The percentage of viable cell number was calculated by normalizing the experimental fluorescence intensity, where 100% is set to cells receiving no drug treatment (cells metabolizing at optimal rate), and 0% is set to readings from cells treated with Paclitaxel (cells not metabolizing at all due to their destruction by anti-cancer drug). A value under 50% could be considered a useful indication of potential efficacy.

PC3 cells = assay: Cell metabolism inhibition assay (Cell titre Blue) with fatty acids; assay type: cell-based; conditions: 100% = undrugged media
Method: A cell metabolism inhibition assay was performed to determine the effect of different fatty acids on cellular metabolic rate. The fatty acids tested were α-Linolenic acid, omega 3 fatty acid (ALA), Arachidonic acid, omega 6 fatty acid (AA), 9Z, 11E conjugated Linoleic acid, omega 7 fatty acid (CLA), Docosahexaenoic acid, omega 3 fatty acid (DHA), Eicosapentaenoic acid, omega 3 fatty acid (EPA), Oleic acid, omega 9 fatty acid (OA), Ricinoleic acid, omega 9 hydroxylated fatty acid (RA).
PC3 cells are from a cell line derived from a hormone refractory prostate cancer and are known to overexpress HSD10. PC3 cells were seeded at a density of 4,000 cells per well in a 96 well plate, and incubated at 37° C., 5% CO2 for 48 hours in standard growth media (F12K nutrient media, 7% Fetal Calf Serum, 2 mM L-Glutamine, 45 mg/L ascorbic acid). The media was then removed by pipette and replaced with the appropriate drug treatment as follows: 20 μM, or 40 μM, or 60 μM, or 80 μM, or 100 μM ALA in PC3 treatment media (F12K nutrient media, 125 uM fatty acid free BSA, 2 mM L-Glutamine, 45 mg/L ascorbic acid); 20 μM, or 40 μM, or 60 μM, or 80 μM, or 100 μM AA in PC3 treatment media; 20 μM, or 40 μM, or 60 μM, or 80 μM, or 100 μM CLA in PC3 treatment media; 20 μM, or 40 μM, or 60 μM, or 80 μM, or 100 μM DHA in PC3 treatment media; 20 μM, or 40 μM, or 60 μM, or 80 μM, or 100 μM EPA in PC3 treatment media; 20 μM, or 40 μM, or 60 μM, or 80 μM, or 100 μM OA in PC3 treatment media; and 20 μM, or 40 μM, or 60 μM, or 80 μM, or 100 μM RA in PC3 treatment media. After incubation in the drug treatment for 72 hours at 37° C., 5% CO2, 50 μL Cell titre Blue Assay Reagent was added to each well and the plate return to incubation at 37° C., 5% CO2, for a further 24 hours, at which time the absorbance at 620 nm was recorded. The reduction of absorbance at 620 nm represents a higher metabolic rate, and the data below has been normalized such that 100% represents cells that have been grown in the presence of undrugged media, and 0% represents wells containing no cells.

MCF7 cells = assay: Cell growth inhibition, lysed cell LDH assay, breast cancer cell line; assay type: cell-based; conditions: 50 μM Risperidone and/or 50 μM CLA, 1 μM Testosterone (T) where added, 96 hours
Method: as §1, §2, §3

VERO cells = assay: Cell growth inhibition, lysed cell LDH assay, non-cancerous cell line; assay type: cell-based
Method: as §1, §2, §3

A549 cells = assay: Cell growth inhibition, lysed cell LDH assay, lung cancer cell line; assay type: cell-based; conditions: A549; 50 μM Risperidone and/or 50 μM CLA, 1 μM Testosterone (T) where added; 96 hours
Method: To determine whether Risperidone alone, or in combination with CLA could inhibit cell growth of cells taken from a lung cancer cell line overexpressing HSD10, A549 cells were seeded at a density of 2,000 cells per well in a 96 well plate, and incubated at 37° C., 5% CO2 for 48 hours in standard growth media (DMEM nutrient media, 10% Fetal Calf Serum, 2 mM L-Glutamine). The media was then removed by pipette and replaced with the appropriate drug treatment as follows: 50 μM Risperidone in A459 treatment media (DMEM nutrient media, 125 uM fatty acid free BSA, 2 mM L-Glutamine); 50 μM CLA in A459 treatment media; 50 μM Risperidone and 50 μM CLA in A459 treatment media; 50 μM Risperidone and 1 μM Testosterone in A459 treatment media; 50 μM Risperidone, 50 μM CLA, and 1 μM Testosterone in A459 treatment media. After incubation in the drug treatment for 96 hours at 37° C., 5% CO2, the supernatant was removed from all wells of cells, and cells washed with 200 μL PBS.
After removal of the PBS from the cell cultures described above, cell number was determined using a lysed cell LDH assay. Cells were lysed with 0.9% Triton-X in PBS for 2 hours at 37° C., 5% CO2 and 50 μL of this cell lysate was transferred to a fresh 96 well plate. About 50 μL of CytoTox 96 assay reagent was added to the transferred cell lysate and this mixture was incubated at room temperature in the dark for 20 minutes. After the addition of 50 μL stop reagent, the optical absorbance was determined for each incubated mixture at 492 nm. The percentage cell number was calculated by normalizing the experimental counts, where 100% is set to cells receiving no drug treatment, and 0% is set to readings from wells containing no cells. The mean and standard error was calculated from at least 3 wells.

With CCCCCC/C=C/C=C\CCCCCCCC(=O)O [CLA, 9Z, 11E conjugated Linoleic acid] the “Percentage of Lysed Cells” value (OVCAR-3 cells) was 87 ± 6.0%, the “percentage of viable cell number” value (BxPC-3 cells; 0.1 uM) was 103% and the “percentage of viable cell number” value (BxPC-3 cells; 2 uM) was 71%. The “percentage of viable cell number” value (BxPC-3 cells; 50 uM) was 119%, the “Cellular Metabolic Activity” value (PC3 cells; 20 μM fatty acid) was 86 ± 2.4% and the “Cellular Metabolic Activity” value (PC3 cells; 40 μM fatty acid) was 71 ± 3.8%. For the same compound, the “Cellular Metabolic Activity” value (PC3 cells; 60 μM fatty acid) was 59 ± 2.8%, the “Cellular Metabolic Activity” value (PC3 cells; 80 μM fatty acid) was 63 ± 4.0% and the “Cellular Metabolic Activity” value (PC3 cells; 100 μM fatty acid) was 67 ± 5.0%. The “Percentage of Lysed Cells” value (MCF7 cells) was 56 ± 2.6%, the “effect on growth of cells from the non-cancerous cell line VERO” value (VERO cells; 50 μM) was “neither Risperidone nor CLA had any measurable effect” and the “Percentage of Lysed Cells” value (VERO cells; VERO, 50 μM Risperidone and/or 50 μM CLA, 1 μM Testosterone (T) where added, 96 hours) was 98 ± 2.7%. For the same compound, the “Percentage of Lysed Cells” value (A549 cells) was 4.5 ± 0.3%.
